Assays:
Assay type in all cases: binding
[1] = molecular target: TEAD1 TAZ (amino acids 13-57) (Homo sapiens, UniProt P28347); assay: TEAD1-TAZ HTRF (TR-FRET) protein-protein interaction assay; details: for TEAD1 TAZ HTRF combined: Max % Inhibition: TEAD1, TAZ peptide; for EC50: TEAD1-TAZ HTRF, TR-FRET 665 nm/615 nm, read-out: TEAD1 TAZ HTRF combined: EC50
Experimental: (§1) Purified His-tagged TEAD protein (YAP Binding Domain, amino acids 217-447) is pre-incubated with Europium labelled anti-His antibody tracer (Perkin Elmer Cat #AD0110). Small molecule Inhibitors are then incubated with the TEAD-Eu protein complex for 30 minutes to allow for binding to TEAD protein. Biotinylated YAP peptide for TEAD-YAP assays (AA's 50-100) or biotinylated TAZ peptide for TEAD-TAZ assays (AA's 13-57) that has been pre-incubated with streptavidin-xl665 acceptor (CIS-Bio Cat #610SAXAC) or is added to the compound-TEAD mix. The TEAD-YAP-inhibitor mixture is then incubated for 60 minutes at room temperature. All reactions are carried out in a polystyrene plate. After 60 minutes, the plate is read on a plate reader using TR-FRET mode with wavelengths of 665 nm/615 nm. If YAP or TAZ binds to TEAD as expected, a TR-FRET signal results from the proximity of YAP or TAZ and TEAD after binding. If an inhibitor such as peptide 17 (Selleckchem Cat #58164) interferes with YAP-TEAD or TAZ-TEAD binding, the disruption of the YAP or TAZ:TEAD interaction results in a decrease in TR-FRET signal. The potency of compounds as YAP:TEAD or TAZ:TEAD protein-protein interaction (PPi) inhibitors is determined by an IC50 or EC50 value generated using a non-linear four parameter curve fit.

[2] = molecular target: TEAD3 YAP50-100 (Homo sapiens, UniProt Q99594); assay: TEAD3-YAP HTRF (TR-FRET) protein-protein interaction assay; details: TEAD3, YAP peptide 50-100, HTRF; for EC50: read-out: TEAD3 YAP50-100 HTRF combined: EC50
Experimental: as §1

[3] = molecular target: TEAD4 YAP50-100 (Homo sapiens, UniProt Q15561); assay: TEAD4-YAP HTRF (TR-FRET) protein-protein interaction assay; details: TEAD4, YAP peptide 50-100, HTRF; for EC50: read-out: TEAD4 YAP50-100 HTRF combined: EC50
Experimental: as §1

[4] = molecular target: TEAD2 YAP50-100 (Homo sapiens, UniProt Q15562); assay: TEAD2-YAP HTRF (TR-FRET) protein-protein interaction assay; details: TEAD2, YAP peptide 50-100, HTRF; for EC50: read-out: TEAD2 YAP50-100 HTRF combined: EC50
Experimental: as §1

[5] = molecular target: TEAD3 TAZ (amino acids 13-57) (Homo sapiens, UniProt Q99594); assay: TEAD3-TAZ HTRF (TR-FRET) protein-protein interaction assay; details: for TEAD3 TAZ HTRF combined: Max % Inhibition: TEAD3, TAZ peptide; for EC50: TEAD3-TAZ HTRF, TR-FRET 665 nm/615 nm, read-out: TEAD3 TAZ HTRF combined: EC50
Experimental: as §1

[6] = molecular target: TEAD1 YAP50-100 (Homo sapiens, UniProt P28347); assay: TEAD1-YAP HTRF (TR-FRET) protein-protein interaction assay; details: TEAD1, YAP peptide 50-100, HTRF; for EC50: read-out: TEAD1 YAP50-100 HTRF combined: EC50
Experimental: as §1

[7] = molecular target: TEAD2 TAZ (amino acids 13-57) (Homo sapiens, UniProt Q15562); assay: TEAD2-TAZ HTRF (TR-FRET) protein-protein interaction assay; details: for TEAD2 TAZ HTRF combined: Max % Inhibition: TEAD2, TAZ peptide; for EC50: TEAD2-TAZ HTRF, TR-FRET 665 nm/615 nm, read-out: TEAD2 TAZ HTRF combined: EC50
Experimental: as §1

[8] = molecular target: TEAD4 TAZ (amino acids 13-57) (Homo sapiens, UniProt Q15561); assay: TEAD4-TAZ HTRF (TR-FRET) protein-protein interaction assay; details: for TEAD4 TAZ HTRF combined: Max % Inhibition: TEAD4, TAZ peptide; for EC50: TEAD4-TAZ HTRF, TR-FRET 665 nm/615 nm, read-out: TEAD4 TAZ HTRF combined: EC50
Experimental: as §1

Sequence of TEAD4 TAZ (amino acids 13-57) (Q15561 217-434 limits assumed): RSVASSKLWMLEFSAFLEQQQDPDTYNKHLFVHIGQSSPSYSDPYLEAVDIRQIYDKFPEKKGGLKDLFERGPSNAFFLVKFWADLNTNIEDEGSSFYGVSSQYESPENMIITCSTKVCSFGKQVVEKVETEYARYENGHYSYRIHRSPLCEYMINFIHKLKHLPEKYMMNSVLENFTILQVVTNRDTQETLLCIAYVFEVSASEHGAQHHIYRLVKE
Sequence of TEAD4 YAP50-100 (Q15561 217-434 limits assumed): as above
Sequence of TEAD1 TAZ (amino acids 13-57) (P28347 167-426 limits assumed): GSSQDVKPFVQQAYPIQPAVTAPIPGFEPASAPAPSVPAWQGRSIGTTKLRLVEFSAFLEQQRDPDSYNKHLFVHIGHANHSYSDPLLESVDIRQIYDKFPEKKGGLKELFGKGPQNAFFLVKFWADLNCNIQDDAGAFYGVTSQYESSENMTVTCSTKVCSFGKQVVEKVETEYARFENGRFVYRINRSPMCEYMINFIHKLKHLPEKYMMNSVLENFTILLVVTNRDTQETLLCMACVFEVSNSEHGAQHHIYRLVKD
Sequence of TEAD1 YAP50-100 (P28347 167-426 limits assumed): as above
Sequence of TEAD2 TAZ (amino acids 13-57) (Q15562 217-447): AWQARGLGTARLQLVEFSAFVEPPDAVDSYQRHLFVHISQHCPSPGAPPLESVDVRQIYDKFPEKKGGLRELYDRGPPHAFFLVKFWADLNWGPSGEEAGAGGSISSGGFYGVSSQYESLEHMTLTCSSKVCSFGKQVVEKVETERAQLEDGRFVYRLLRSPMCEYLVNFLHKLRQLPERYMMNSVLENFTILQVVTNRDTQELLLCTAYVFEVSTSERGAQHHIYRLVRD
Sequence of TEAD2 YAP50-100 (Q15562 217-447): as above
Sequence of TEAD3 TAZ (amino acids 13-57) (Q99594 173-435 limits assumed): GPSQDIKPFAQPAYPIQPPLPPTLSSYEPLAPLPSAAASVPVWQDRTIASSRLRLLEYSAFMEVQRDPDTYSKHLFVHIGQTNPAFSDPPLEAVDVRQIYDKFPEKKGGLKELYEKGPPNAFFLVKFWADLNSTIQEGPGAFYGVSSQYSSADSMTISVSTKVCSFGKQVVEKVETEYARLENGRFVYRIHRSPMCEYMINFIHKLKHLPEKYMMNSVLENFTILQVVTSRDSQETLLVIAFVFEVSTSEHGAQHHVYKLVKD
Sequence of TEAD3 YAP50-100 (Q99594 173-435 limits assumed): as above

Compound	TEAD1 TAZ HTRF combined: Max % Inhibition [1] [%]	EC50 [1] [nM]	TEAD3 YAP50-100 HTRF combined: Max % Inhibition [2] [%]	EC50 [2] [nM]	TEAD4 YAP50-100 HTRF combined: Max % Inhibition [3] [%]	EC50 [3] [nM]	TEAD2 YAP50-100 HTRF combined: Max % Inhibition [4] [%]	EC50 [4] [nM]	TEAD3 TAZ HTRF combined: Max % Inhibition [5] [%]	EC50 [5] [nM]	TEAD1 YAP50-100 HTRF combined: Max % Inhibition [6] [%]	EC50 [6] [nM]	TEAD2 TAZ HTRF combined: Max % Inhibition [7] [%]	EC50 [7] [nM]	TEAD4 TAZ HTRF combined: Max % Inhibition [8] [%]	EC50 [8] [nM]
C[C@H]1[C@@H](CF)CN1C(=O)c1c(-c2ncccn2)nn2c(=O)cc(-c3ccc(C4CCCCC4)cc3)[nH]c12 (single isomer, unassigned) [Isomer B, Example 40]	70.0	140	68.0	440	49.5	2000	68.0	80	70.0	530	76.0	130	78.5	120	51.0	2100
Cc1nccnc1-c1nn2c(=O)cc(-c3ccc(C4CCCCC4)cc3)[nH]c2c1C(=O)N1C[C@H](CF)[C@@H]1C (single isomer, unassigned) [Isomer B, Example 41]	71.0	70	80.2	120	57.2	30	77.8	20	73.8	140	80.0	80	74.4	20	57.0	30
Cc1nccnc1-c1nn2c(=O)cc(-c3ccc(CC4CCCC4)cc3)[nH]c2c1C(=O)N1C[C@H](CF)[C@@H]1C (single isomer, unassigned) [Isomer B, Example 42]	59.0	60	68.0	80	52.5	20	68.0	10	60.0	90	68.0	40	62.0	10	48.5	20
C[C@@H]1[C@H](CF)CN1C(=O)c1c(-c2ncccn2)nn2c(=O)cc(-c3ccc(CC4CCCC4)cc3)[nH]c12 (single isomer, unassigned) [Isomer B, Example 43]	60.0	50	66.0	140	51.0	370	73.0	20	65.5	150	65.0	50	71.5	20	50.0	270
C[C@H]1[C@@H](CF)CN1C(=O)c1c(-c2cnccn2)nn2c(=O)cc(-c3ccc(CC4CCCC4)cc3)[nH]c12 (single isomer, unassigned) [Isomer B, Example 44, Cis-5-(4-(cyclopentylmethyl)phenyl)-3-(3-(fluoromethyl)-2-methylazetidine-1-carbonyl)-2-(pyrazin-2-yl)pyrazolo[1,5-a]pyrimidin-7(4H)-one]	59.5	40	61.5	50	50.5	20	70.0	10	56.0	50	69.0	30	67.5	10	52.0	20
CN(C)C(=O)c1nn2c(=O)cc(-c3ccc(C4CCCCC4)cc3)[nH]c2c1C(=O)N1CC(CF)C1 [Compound 1, 5-(4-Cyclohexylphenyl)-3-(3-(fluoromethyl)azetidine-1-carbonyl)-N,N-dimethyl-7-oxo-4,7-dihydropyrazolo[1,5-a]pyrimidine-2-carboxamide]	61.2	90	75.3	110	55.3	330	74.4	10	63.0	170	70.0	90	69.2	10	40.3	600
CN(C)C(=O)c1nn2c(=O)cc(-c3ccc(CC4CCCC4)cc3)[nH]c2c1C(=O)N1CC(CF)C1 [Compound 2, 5-(4-(Cyclopentylmethyl)phenyl)-3-(3-(fluoromethyl)azetidine-1-carbonyl)-N,N-dimethyl-7-oxo-4,7-dihydropyrazolo[1,5-a]pyrimidine-2-carboxamide]	47.0	70	60.5	120	51.5	470	68.0	10	44.0	120	62.0	60	66.5	10	42.0	330
CN(C)C(=O)c1nn2c(=O)cc(-c3cc(F)c(C4CCCCC4)c(F)c3)[nH]c2c1C(=O)N1CC(CF)C1 [Compound 3, 5-(4-Cyclohexyl-3,5-difluorophenyl)-3-(3-(fluoromethyl)azetidine-1-carbonyl)-N,N-dimethyl-7-oxo-4,7-dihydropyrazolo[1,5-a]pyrimidine-2-carboxamide]	44.0	90	66.5	230	39.5	210	56.5	10	44.0	190	55.0	60	55.0	10	29.0	170
